Data taken from patent US9179678B2, “Substituted [1,2,4]triazoles and substituted tetrazoles as herbicides” (SYNGENTA LIMITED, priority 2012, dated 2015).

Legend:
Assay type in all cases: in vivo
Setaria faberi (SETFA) [1] = experiment: Pre-emergence glasshouse herbicide test; conditions: PRE Application, after 13 days
[2] = test system: Amaranthus retoflexus (AMARE); experiment: Post-emergence glasshouse herbicide test; conditions: POST Application, after 13 days
[3] = test system: Alopecurus myosuroides (ALOMY); experiment: Pre-emergence glasshouse herbicide test; conditions: PRE Application, after 13 days
Method in brief: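 Alopecurus myosuroides seeds were sown in standard soil in pots and kept one day in a glasshouse at 24/16° C. day/night, 14 hours light and 65% humidity. The soil was then sprayed pre-emergence with the active ingredient in acetone/water (50:50) containing 0.5% Tween 20. Plants grew on, watered twice daily, and percentage damage was scored 13 days later.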

[4] = test system: Amaranthus retoflexus (AMARE); experiment: Pre-emergence glasshouse herbicide test; conditions: PRE Application, after 13 days
[5] = test system: Alopecurus myosuroides (ALOMY); experiment: Post-emergence glasshouse herbicide test; conditions: POST Application, after 13 days
Method in brief: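 Alopecurus myosuroides seeds were sown in pots of standard soil and grown for 8 days in a glasshouse at 24/16° C. day/night, 14 hours light and 65% humidity. The plants were then sprayed post-emergence with an aqueous solution made from the active ingredient in acetone/water (50:50) containing 0.5% Tween 20. Percentage plant damage was scored 13 days later.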

Solanum nigrum (SOLNI) [6] = experiment: Post-emergence glasshouse herbicide test; conditions: POST Application, after 13 days
Method in brief: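 Solanum nigrum seeds were sown in pots of standard soil and grown for 8 days in a glasshouse at 24/16° C. day/night, 14 hours light and 65% humidity. Plants were then sprayed post-emergence with the active ingredient formulated in acetone/water (50:50) containing 0.5% Tween 20. They were grown on under the same conditions with twice-daily watering, and percentage plant damage was scored after 13 days.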

[7] = test system: Echinochloa crus-galli (ECHCG); experiment: Pre-emergence glasshouse herbicide test; conditions: PRE Application, after 13 days
Solanum nigrum (SOLNI) [8] = experiment: Pre-emergence glasshouse herbicide test; conditions: PRE Application, after 13 days
[9] = test system: Echinochloa crus-galli (ECHCG); experiment: Post-emergence glasshouse herbicide test; conditions: POST Application, after 13 days
[10] = test system: Ipomoea hederacea (IPOHE); experiment: Pre-emergence glasshouse herbicide test; conditions: PRE Application, after 13 days
[11] = test system: Ipomoea hederacea (IPOHE); experiment: Post-emergence glasshouse herbicide test; conditions: POST Application, after 13 days
Setaria faberi (SETFA) [12] = experiment: Post-emergence glasshouse herbicide test; conditions: POST Application, after 13 days
Method in brief: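 Setaria faberi seeds were sown in standard soil in pots and grown for 8 days in a glasshouse at 24/16° C. day/night, 14 hours light and 65% humidity. Plants were then sprayed post-emergence with the active ingredient in acetone/water (50:50) containing 0.5% Tween 20, regrown under the same conditions with twice-daily watering, and scored for percentage damage after 13 days.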

Setaria faberi (SETFA) [13] = experiment: Pre-emergence glasshouse herbicide test; conditions: PRE Application, 1000 g/h, after 13 days
[14] = test system: Echinochloa crus-galli (ECHCG); experiment: Pre-emergence glasshouse herbicide test; conditions: PRE Application, 1000 g/h, after 13 days
[15] = test system: Amaranthus retoflexus (AMARE); experiment: Pre-emergence glasshouse herbicide test; conditions: PRE Application, 1000 g/h, after 13 days
[16] = test system: Ipomoea hederacea (IPOHE); experiment: Pre-emergence glasshouse herbicide test; conditions: PRE Application, 1000 g/h, after 13 days
Solanum nigrum (SOLNI) [17] = experiment: Pre-emergence glasshouse herbicide test; conditions: PRE Application, 1000 g/h, after 13 days
[18] = test system: Echinochloa crus-galli (ECHCG); experiment: Post-emergence glasshouse herbicide test; conditions: POST Application, 1000 g/h, after 13 days
[19] = test system: Amaranthus retoflexus (AMARE); experiment: Post-emergence glasshouse herbicide test; conditions: POST Application, 1000 g/h, after 13 days
[20] = test system: Ipomoea hederacea (IPOHE); experiment: Post-emergence glasshouse herbicide test; conditions: POST Application, 1000 g/h, after 13 days

Row | SMILES | percentage damage caused to the plant, SETFA (Setaria faberi (SETFA) [13]) | percentage damage caused to the plant, ECHCG [14] | percentage damage caused to the plant, ALOMY ([3]; 1000 g/h) | percentage damage caused to the plant, AMARE [15] | percentage damage caused to the plant, IPOHE [16] | percentage damage caused to the plant, SOLNI (Solanum nigrum (SOLNI) [17]) | percentage damage caused to the plant, ECHCG [18] | percentage damage caused to the plant, ALOMY ([5]; 1000 g/h) | percentage damage caused to the plant, AMARE [19] | percentage damage caused to the plant, IPOHE [20] | percentage damage caused to the plant, SOLNI (Solanum nigrum (SOLNI) [6]; 1000 g/h) | percentage damage caused to the plant, SETFA (Setaria faberi (SETFA) [12]; 1000 g/h) | further results
1 | Cn1nnnc1NC(=O)c1nc2ccccc2n(-c2ccoc2)c1=O [Compound 5.013] |  |  |  |  |  |  |  |  |  |  |  |  | percentage damage caused to the plant, SETFA (Setaria faberi (SETFA) [1]; applied at 250 g/ha): 2 (2=20-39%); percentage damage caused to the plant, AMARE ([2]; applied at 250 g/ha): 5 (5=80-100%); percentage damage caused to the plant, ALOMY ([3]; applied at 250 g/ha): 1 (1=0-19%); percentage damage caused to the plant, AMARE ([4]; applied at 250 g/ha): 5 (5=80-100%); percentage damage caused to the plant, ALOMY ([5]; applied at 250 g/ha): 1 (1=0-19%); percentage damage caused to the plant, SOLNI (Solanum nigrum (SOLNI) [6]; applied at 250 g/ha): 5 (5=80-100%); percentage damage caused to the plant, ECHCG ([7]; applied at 250 g/ha): 2 (2=20-39%); percentage damage caused to the plant, SOLNI (Solanum nigrum (SOLNI) [8]; applied at 250 g/ha): 5 (5=80-100%); percentage damage caused to the plant, ECHCG ([9]; applied at 250 g/ha): 1 (1=0-19%); percentage damage caused to the plant, IPOHE ([10]; applied at 250 g/ha): 4 (4=60-79%); percentage damage caused to the plant, IPOHE ([11]; applied at 250 g/ha): 4 (4=60-79%); percentage damage caused to the plant, SETFA (Setaria faberi (SETFA) [12]; applied at 250 g/ha): 1 (1=0-19%)
2 | Cc1cc(-n2c(=O)c(C(=O)Nc3nnnn3C)nc3ccccc32)ccc1F [Compound 5.028] |  |  |  |  |  |  |  |  |  |  |  |  | percentage damage caused to the plant, SETFA (Setaria faberi (SETFA) [1]; applied at 500 g/ha): 5 (5=80-100%); percentage damage caused to the plant, AMARE ([2]; applied at 500 g/ha): 5 (5=80-100%); percentage damage caused to the plant, ALOMY ([3]; applied at 500 g/ha): 3 (3=40-59%); percentage damage caused to the plant, AMARE ([4]; applied at 500 g/ha): 5 (5=80-100%); percentage damage caused to the plant, ALOMY ([5]; applied at 500 g/ha): 4 (4=60-79%); percentage damage caused to the plant, SOLNI (Solanum nigrum (SOLNI) [6]; applied at 500 g/ha): 5 (5=80-100%); percentage damage caused to the plant, ECHCG ([7]; applied at 500 g/ha): 5 (5=80-100%); percentage damage caused to the plant, SOLNI (Solanum nigrum (SOLNI) [8]; applied at 500 g/ha): 5 (5=80-100%); percentage damage caused to the plant, ECHCG ([9]; applied at 500 g/ha): 5 (5=80-100%); percentage damage caused to the plant, IPOHE ([10]; applied at 500 g/ha): 5 (5=80-100%); percentage damage caused to the plant, IPOHE ([11]; applied at 500 g/ha): 5 (5=80-100%); percentage damage caused to the plant, SETFA (Setaria faberi (SETFA) [12]; applied at 500 g/ha): 5 (5=80-100%)
3 | Cn1nnnc1NC(=O)c1nc2ccc(F)cc2n(-c2ccccc2)c1=O [Compound 5.010] |  |  |  |  |  |  |  |  |  |  |  |  | percentage damage caused to the plant, SETFA (Setaria faberi (SETFA) [1]; applied at 250 g/ha): 1 (1=0-19%); percentage damage caused to the plant, AMARE ([2]; applied at 250 g/ha): 5 (5=80-100%); percentage damage caused to the plant, ALOMY ([3]; applied at 250 g/ha): 1 (1=0-19%); percentage damage caused to the plant, AMARE ([4]; applied at 250 g/ha): 5 (5=80-100%); percentage damage caused to the plant, ALOMY ([5]; applied at 250 g/ha): 1 (1=0-19%); percentage damage caused to the plant, SOLNI (Solanum nigrum (SOLNI) [6]; applied at 250 g/ha): 5 (5=80-100%); percentage damage caused to the plant, ECHCG ([7]; applied at 250 g/ha): 1 (1=0-19%); percentage damage caused to the plant, SOLNI (Solanum nigrum (SOLNI) [8]; applied at 250 g/ha): 4 (4=60-79%); percentage damage caused to the plant, ECHCG ([9]; applied at 250 g/ha): 3 (3=40-59%); percentage damage caused to the plant, IPOHE ([10]; applied at 250 g/ha): 2 (2=20-39%); percentage damage caused to the plant, IPOHE ([11]; applied at 250 g/ha): 5 (5=80-100%); percentage damage caused to the plant, SETFA (Setaria faberi (SETFA) [12]; applied at 250 g/ha): 4 (4=60-79%)
4 | Cn1nnnc1NC(=O)c1cc2ccccc2n(-c2ccsc2)c1=O [Compound 7.002] | 1 (1=0-19%) | 1 (1=0-19%) | 1 (1=0-19%) | 2 (2=20-39%) | 2 (2=20-39%) | 3 (3=40-59%) | 2 (2=20-39%) | 1 (1=0-19%) | 3 (3=40-59%) | 2 (2=20-39%) | 5 (5=80-100%) | 1 (1=0-19%) | 
5 | Cn1nnnc1NC(=O)c1cc2ccncc2n(-c2ccccc2)c1=O [Compound 8.001] | 1 (1=0-19%) | 1 (1=0-19%) | 1 (1=0-19%) | 5 (5=80-100%) | 1 (1=0-19%) | 2 (2=20-39%) | 4 (4=60-79%) | 1 (1=0-19%) | 5 (5=80-100%) | 3 (3=40-59%) | 5 (5=80-100%) | 1 (1=0-19%) | 
6 | CCOc1cccc(-n2c(=O)c(C(=O)Nc3nnnn3C)nc3ccccc32)c1 [Compound 5.014] | 5 (5=80-100%) | 2 (2=20-39%) | 2 (2=20-39%) | 5 (5=80-100%) | 4 (4=60-79%) | 5 (5=80-100%) | 4 (4=60-79%) | 3 (3=40-59%) | 5 (5=80-100%) | 5 (5=80-100%) | 5 (5=80-100%) | 5 (5=80-100%) | 
7 | Cn1nnnc1NC(=O)c1cc2cc(F)cnc2n(-c2ccccc2)c1=O [Compound 6.001] | 1 (1=0-19%) | 3 (3=40-59%) | 1 (1=0-19%) | 4 (4=60-79%) | 4 (4=60-79%) | 5 (5=80-100%) | 5 (5=80-100%) | 3 (3=40-59%) | 5 (5=80-100%) | 5 (5=80-100%) | 5 (5=80-100%) | 3 (3=40-59%) | 
8 | C=Cc1cccc(-n2c(=O)c(C(=O)Nc3nnnn3C)nc3ccccc32)c1 [Compound 5.027] | 5 (5=80-100%) | 5 (5=80-100%) | 5 (5=80-100%) | 5 (5=80-100%) | 5 (5=80-100%) | 5 (5=80-100%) | 5 (5=80-100%) | 5 (5=80-100%) | 5 (5=80-100%) | 5 (5=80-100%) | 5 (5=80-100%) | 5 (5=80-100%) | 
